Data taken from US7732468B2, “3-aryl-6-aryl-[ 1,2,4]triazolo[3,4-b][1,3,4]thiadiazoles and related compounds as activators of caspases and inducers of apoptosis and the use thereof” (Cytovia, Inc., priority 2006, dated 2010).

How the values were obtained:
Format in all cases: cell-based
[1] = test system: human Burkitt's lymphoma cell line Namalwa; experiment: Inhibition of cell proliferation (GI50) in Namalwa cells; conditions: Burkitts lymphoma cell, 48 h incubation
Description: (§1) Human breast cancer cell lines T-47D, MX1 and MDAMB435, human colon carcinoma cell line HCT116, human leukemia cell line K562, human lymphoma cell line Raji, human B cell lymphoblastoid cell line Ramos, and human Burkitt's lymphoma cell line Namalwa were grown and harvested as in Example 14. An aliquot of […] of cells (4.4×10^4 cells/mL) was added to a well of a 96-well microtiter plate containing 5 μL of a 10% DMSO in RPMI-1640 media solution containing 10 nM to 100 μM of 6-(3,4-dimethoxyphenyl)-3-(2-methoxyphenyl)-[1,2,4]triazolo[3,4-b][1,3,4]thiadiazole (1 nM to 10 μM final). An aliquot of 45 μL of cells was added to a well of a 96-well microtiter plate containing 5 μL of a 10% DMSO in RPMI-1640 media solution without compound as the control sample for maximal cell proliferation (LMax). The samples were mixed by agitation and then incubated at 37° C. for 48 h in a 5% CO2-95% humidity incubator. After incubation, the samples were removed from the incubator and 25 μL of CellTiter-Glo™ reagent (Promega) was added. The samples were mixed by agitation and incubated at room temperature for 10-15 min. Plates were then read using a luminescent plate reader (Model SPECTRAfluor Plus, Tecan) to give Ltest values.
(§2) The samples were mixed by agitation and then incubated at 37° C. for 0.5 h in a 5% CO2-95% humidity incubator. After incubation, the samples were removed from the incubator and 25 μL of CellTiter-Glo™ reagent (Promega) was added. The samples were mixed by agitation and incubated at […] 10-15 min at room temperature in a 5% CO2-95% humidity incubator. Fluorescence was read as above, (LStart) defining luminescence for initial cell number used as baseline in GI50 determinations.
(§3) GI50 (dose for 50% inhibition of cell proliferation) is the concentration where [(LTest−LStart)/(LMax−LStart)]=0.5.

[2] = test system: human colon carcinoma cell line HCT116; experiment: Inhibition of cell proliferation (GI50) in HCT116 cells; conditions: HCT 116 cells, 48 h incubation
Description: as §1, §2, §3

[3] = test system: human Burkitt's lymphoma cell line Namalwa; experiment: Caspase cascade activation in Namalwa cells; conditions: Burkitts lymphoma cell, 48 h incubation, read-out: caspase potency EC50 Namalwa
Description: (§4) Human breast cancer cell lines T-47D, human hepatocellular carcinoma cell line SNU398, human colon carcinoma cell line HCT116, human cancer cell line H11299, human Burkitt's lymphoma cell line Namalwa, human lymphoma cell line Raji, and human B cell lymphoblastoid cell line Ramos were grown according to media component mixtures designated by American Type Culture Collection+10% FCS (Invitrogen Corporation), in a 5% CO2-95% humidity incubator at 37° C. T-47D and H1299 cells were maintained at a cell density between 50 and 80% confluency at a cell density of 0.1 to 0.6×10^6 cells/mL. Cells were harvested at 600×g and resuspended at 0.65×10^6 cells/mL into appropriate media+10% FCS. An aliquot of 22.5 μL of cells was added to a well of a 384-well microtiter plate containing 2.5 μL of a 10% DMSO in RPMI-1640 media solution containing 0.16 to 100 μM of 6-(3,4-dimethoxyphenyl)-3-(2-methoxyphenyl)-[1,2,4]triazolo[3,4-b][1,3,4]thiadiazole or other test compound (0.016 to 10 μM final). An aliquot of 22.5 μL of cells was added to a well of a 384-well microtiter plate containing 2.5 μL of a 10% DMSO in RPMI-1640 media solution without test compound as the control sample. The samples were mixed by agitation and then incubated at 37° C. for 48 h in a 5% CO2-95% humidity incubator. After incubation, the samples were removed from the incubator and 25 μL of a solution containing 14 μM of N-(Ac-DEVD)-N′-ethoxycarbonyl-R110 (SEQ ID No.:1) fluorogenic substrate (Cytovia, Inc.; WO99/18856), 20% sucrose (Sigma), 20 mM DTT (Sigma), 200 mM NaCl (Sigma), 40 mM Na PIPES buffer pH 7.2 (Sigma), and 500 μg/mL lysolecithin (Calbiochem) was added. The samples were mixed by agitation and incubated at room temperature. Using a fluorescent plate reader (Model SPECTRAfluor Plus, Tecan), an initial reading (T=0) was made approximately 1-2 min after addition of the substrate solution, employing excitation at 485 nm and emission at 530 nm, to determine the background fluorescence of the control sample. After the 3 h incubation, the samples were read for fluorescence as above (T=3 h).
(§5) The Relative Fluorescence Unit values (RFU) were used to calculate the sample readings as follows: RFU(T=3h)−Control RFU(T=0)=Net RFU(T=3h)
(§6) The activity of caspase cascade activation was determined by the ratio of the net RFU value for 6-(3,4-dimethoxyphenyl)-3-(2-methoxyphenyl)-[1,2,4]triazolo[3,4-b][1,3,4]thiadiazole (Example I) or other test compound to that of control samples. The EC50 (nM) was determined by a sigmoidal dose-response calculation (Prism 3.0, GraphPad Software Inc.).

[4] = test system: Human breast cancer cell lines T-47D; experiment: Inhibition of cell proliferation (GI50, CellTiter-Glo) in T-47D cells; conditions: T47D cells, 48 h incubation
Description: as §1, §2, §3

[5] = test system: Human breast cancer cell lines T-47D; experiment: Caspase cascade activation (Ac-DEVD-R110 fluorogenic substrate) in T-47D cells; conditions: T47D cells, 48 h incubation, read-out: caspase potency EC50 T47D
Description: as §4, §5, §6

[6] = test system: human hepatocellular carcinoma cell line SNU398; experiment: Caspase cascade activation in SNU398 cells; conditions: SNU-398, 48 h incubation, read-out: caspase potency EC50 SNU398
Description: as §4, §5, §6

[7] = test system: human colon carcinoma cell line HCT116; experiment: Caspase cascade activation in HCT116 cells; conditions: HCT-116, 48 h incubation, read-out: caspase potency EC50 HCT116
Description: as §4, §5, §6

[8] = test system: human lymphoma cell line Raji; experiment: Caspase cascade activation in Raji cells; conditions: RAJ1 cells, 48 h incubation, read-out: caspase potency EC50 RAJ1
Description: as §4, §5, §6

[9] = test system: human B cell lymphoblastoid cell line Ramos; experiment: Inhibition of cell proliferation (GI50) in Ramos cells; conditions: 48 h incubation
Description: as §1, §2, §3

[10] = test system: human lymphoma cell line Raji; experiment: Inhibition of cell proliferation (GI50) in Raji cells; conditions: 48 h incubation
Description: as §1, §2, §3

[11] = test system: human leukemia cell line K562; experiment: Inhibition of cell proliferation (GI50) in K562 cells; conditions: 48 h incubation
Description: as §1, §2, §3

[12] = test system: human B cell lymphoblastoid cell line Ramos; experiment: Caspase cascade activation in Ramos cells; conditions: 48 h incubation, read-out: caspase potency EC50 RAMOS
Description: as §4, §5, §6

[13] = test system: human cancer cell line H1299; experiment: Caspase cascade activation in H1299 cells; conditions: NCI-H1299, 48 h incubation, read-out: caspase potency EC50 H1299
Description: as §4, §5, §6

Row | SMILES | GI50 [1] [µM] | GI50 [2] [µM] | EC50 [3] [µM] | GI50 [4] [µM] | EC50 [5] [µM] | EC50 [6] [µM] | EC50 [7] [µM] | EC50 [8] [µM] | GI50 [9] [µM] | GI50 [10] [µM] | GI50 [11] [µM] | EC50 [12] [µM] | EC50 [13] [µM]
1 | Clc1ccccc1-c1nnc2sc(-c3ccc4c(c3)OCO4)nn12 [L, 3-(2-Chlorophenyl)-6-(3,4-methylenedioxyphenyl)-[1,2,4]triazolo[3,4-b][1,3,4]thiadiazole] | – | – | > 10 | – | 2.62 | > 10 | > 10 | > 10 | – | – | – | > 10 | > 10
2 | COc1ccc(-c2nn3c(-c4ccc(Cl)cc4)nnc3s2)cc1 [M, 3-(4-Chlorophenyl)-6-(4-methoxyphenyl)-[1,2,4]triazolo[3,4-b][1,3,4]thiadiazole] | – | – | > 10 | – | 4.48 | > 10 | > 10 | > 10 | – | – | – | > 10 | 5.05
3 | COc1ccc(-c2nn3c(-c4ccc(Cl)cc4Cl)nnc3s2)cc1OC [N, 3-(2,4-Dichlorophenyl)-6-(3,4-dimethoxyphenyl)-[1,2,4]triazolo[3,4-b][1,3,4]thiadiazole] | – | – | 5.51 | – | 5.02 | > 10 | > 10 | > 10 | – | – | – | 5.78 | > 10
4 | CCOc1ccc(-c2nn3c(-c4ccccc4Cl)nnc3s2)cc1 [O, 3-(2-Chlorophenyl)-6-(4-ethoxyphenyl)-[1,2,4]triazolo[3,4-b][1,3,4]thiadiazole] | – | – | > 10 | – | 2.43 | > 10 | > 10 | > 10 | – | – | – | > 10 | > 10
5 | CCOc1ccc(-c2nn3c(-c4ccccc4C)nnc3s2)cc1 [P, 6-(4-Ethoxyphenyl)-3-o-tolyl-[1,2,4]triazolo[3,4-b][1,3,4]thiadiazole] | 7.69 | > 10 | > 10 | – | 2.37 | 5.55 | 5.75 | > 10 | 6.42 | 9.74 | 3.27 | 5.71 | 5.14
6 | COc1cccc(-c2nn3c(-c4cc(OC)c(OC)c(OC)c4)nnc3s2)c1 [U, 6-(3-Methoxyphenyl)-3-(3,4,5-trimethoxyphenyl)-[1,2,4]triazolo[3,4-b][1,3,4]thiadiazole] | > 10 | > 10 | > 10 | – | 2.74 | > 10 | > 10 | > 10 | 2.69 | 4.64 | 2.77 | > 10 | –
7 | COc1ccc(-c2nn3c(-c4cc(OC)c(OC)c(OC)c4)nnc3s2)cc1OC [V, 6-(3,4-Dimethoxyphenyl)-3-(3,4,5-trimethoxyphenyl)-[1,2,4]triazolo[3,4-b][1,3,4]thiadiazole] | > 10 | 5 | > 10 | – | > 10 | > 10 | > 10 | > 10 | 3.65 | 5 | 1.6 | 2.32 | –

The next compounds have a lower EC50 [3] than those just listed; values first:

Row | GI50 [1] [µM] | GI50 [2] [µM] | EC50 [3] [µM] | GI50 [4] [µM] | EC50 [5] [µM] | EC50 [6] [µM] | EC50 [7] [µM] | EC50 [8] [µM] | GI50 [9] [µM] | GI50 [10] [µM] | GI50 [11] [µM] | EC50 [12] [µM] | EC50 [13] [µM] | SMILES
8 | 0.5 | 0.906 | 0.611 | – | 0.517 | 0.297 | 0.336 | 0.49 | 0.137 | 0.559 | 0.131 | 0.314 | – | COc1cc(-c2nnc3sc(-c4ccc(C)c(C)c4)nn23)cc(OC)c1OC [Entry T, 6-(3,4-Dimethylphenyl)-3-(3,4,5-trimethoxyphenyl)-[1,2,4]triazolo[3,4-b][1,3,4]thiadiazole]
9 | 2.04 | 6.04 | 0.552 | – | 2.45 | 2.12 | 2.67 | 0.688 | 1.3 | 6.73 | 1.88 | 0.532 | – | Clc1ccccc1-c1nnc2sc(-c3ccc4c(c3)OCCO4)nn12 [Q, 3-(2-Chlorophenyl)-6-(3,4-ethylenedioxyphenyl)-[1,2,4]triazolo[3,4-b][1,3,4]thiadiazole]
10 | 0.559 | 0.4 | 0.469 | – | 0.607 | 0.482 | 0.661 | 0.505 | 0.123 | 0.5 | 0.379 | 0.387 | – | Cc1cccc(-c2nn3c(-c4ccc(Cl)cc4Cl)nnc3s2)c1 [K, 3-(2,4-Dichlorophenyl)-6-m-tolyl-[1,2,4]triazolo[3,4-b][1,3,4]thiadiazole]
11 | 0.45 | 1.5 | 0.244 | – | 0.203 | 0.183 | 0.216 | 0.253 | 0.442 | 0.651 | 0.15 | 0.241 | – | COc1cc(-c2nnc3sc(-c4ccco4)nn23)cc(OC)c1OC [R, 6-(Furan-2-yl)-3-(3,4,5-trimethoxyphenyl)-[1,2,4]triazolo[3,4-b][1,3,4]thiadiazole]
12 | 0.021 | 0.107 | 0.018 | 0.022 | 0.121 | 0.033 | 0.04 | – | – | – | – | – | – | COc1ccccc1-c1nnc2sc(-c3ccc(C)c(N)c3)nn12 [Entry 5, 6-(3-Amino-4-methylphenyl)-3-(2-methoxyphenyl)-[1,2,4]triazolo[3,4-b][1,3,4]thiadiazole]
13 | 0.014 | 0.083 | 0.018 | 0.1 | 0.284 | 0.019 | 0.021 | – | – | – | – | – | – | COc1ccc(-c2nn3c(-c4ccccc4OC)nnc3s2)cc1N [Entry 7, 6-(3-Amino-4-methoxyphenyl)-3-(2-methoxyphenyl)-[1,2,4]triazolo[3,4-b][1,3,4]thiadiazole]
